Counter-ions that a name gives are not always drawn.
Test system: IL-4 stimulated expression of CD23 in human Ramos B cells (JAK-1 and JAK-3)
Experiment: Assay for Ramos B-Cell Line Stimulated with IL-4 (CD23 upregulation, FACS)
Type: cell-based
Details: Homo sapiens, Ramos, Ramos B cells stimulated with IL-4, CD23 expression by FACS; read-out: IC50, Example 41
Description: One means of assaying for such inhibition is detection of the effect of the 2,4-substituted pyrimidinediamine compounds on the upregulation of downstream gene products. In the Ramos/IL4 assay, B-cells are stimulated with the cytokine Interleukin-4 (IL-4) leading to the activation of the JAK/Stat pathway through phosphorylation of the JAK family kinases, JAK1 and JAK3, which in turn phosphorylate and activate the transcription factor Stat-6. […] To study the effect of inhibitors (e.g., the 2,4-substituted pyrimindinediamine compounds described herein) on the JAK1 and JAK3 kinases, human Ramos B cells are stimulated with human IL-4. Twenty to 24 hours post stimulation, cells are stained for upregulation of CD23 and analyzed using flow cytometry (FACS). […] An exemplary assay of this type is described in greater detail in Example 41
B-cells stimulated with cytokine Interleukin-4 (IL-4) activate the JAK/Stat pathway through phosphorylation of the JAK family kinases, JAK-1 and JAK-3, which in turn phosphorylate and activate the transcription factor Stat-6. […] To study the effect of inhibitors on the JAK family kinases, human Ramos B cells are stimulated with human IL-4.
The Ramos B-cell line was acquired from ATCC (ATCC Catalog No. CRL-1596). The cells were cultured in RPMI 1640 (Cellgro, MediaTech, Inc., Herndon, VA, Cat No. 10-040-CM) with 10% fetal bovine serum (FBS), heat inactivated (JRH Biosciences, Inc, Lenexa, Kansas, Cat No. 12106-500M) according to ATCC propagation protocol. Cells were maintained at a density of 3.5×10^5. The day before the experiment, Ramos B-cells were diluted to 3.5×10^5 cells/mL to ensure that they were in a logarithmic growth phase.
Cells were spun down and suspended in RPMI with 5% serum. 5×10^4 cells were used per point in a 96-well tissue culture plate. Cells were pre-incubated with compound or DMSO (Sigma-Aldrich, St. Louis, MO, Cat No. D2650) vehicle control for 1 hour in a 37° C. incubator. Cells were then stimulated with IL-4 (Peprotech Inc., Rocky Hill, NJ, Cat No. 200-04) for a final concentration of 50 units/mL for 20-24 hours. Cells were then spun down and stained with anti-CD23-PE(BD Pharmingen, San Diego, CA, Cat No. 555711) and analyzed by FACS. Detection was performed using a BD LSR I System Flow Cytometer, purchased from Becton Dickinson Biosciences of San Jose, California The IC50 calculated based on the results of this assay are provided in TABLE XII.

Going from `CCN(CC)S(=O)(=O)c1ccc(OC)c(Nc2nc(Nc3ccc(Cl)c(Cl)c3)cc(C(=O)OC)n2)c1` [Compound X-1, 6-carbonylmethoxy-N4-(3,4-dichlorophenyl)-N2-(3-N,N-diethylaminosulfonyl-6-methoxyphenyl)-2,4-pyrimidinediamine] to `COc1ccc(N(C)c2nc(Nc3ccc(C)c(S(N)(=O)=O)c3)ncc2F)cc1Cl` [VI-19, N2-(3-Aminosulfonyl-4-methylphenyl)-N4-(3-chloro-4-methoxyphenyl)-5-fluoro-N4-methyl-2,4-pyrimidinediamine], the IC50 falls from 8250 nM to 1030 nM (8-fold).

Going from `NS(=O)(=O)c1cccc(Nc2ncc(F)c(Nc3ccc(O)cc3)n2)c1` [VI-101, N2-(3-Aminosulfonylphenyl)-5-fluoro-N4-(4-hydroxyphenyl)-2,4-pyrimidinediamine] to `C#CCNS(=O)(=O)c1cccc(Nc2nc(Nc3ccc(C)c(S(N)(=O)=O)c3)ncc2F)c1` [VI-79, N2-(3-Aminosulfonyl-4-methylphenyl)-5-fluoro-N4-[3-(prop-2-ynylaminosulfonyl)phenyl]-2,4-pyrimidinediamine], the IC50 falls from 919 nM to 96 nM (9.6-fold).

`CNS(=O)(=O)c1ccc(Nc2ncc(F)c(Nc3ccc(Cl)c(C(F)(F)F)c3)n2)cc1OC` [IX-52, N4-(4-Chloro-3-trifluoromethylphenyl)-5-fluoro-N2-[4-(N-methyl)aminosulfonyl-3-methoxyphenyl]-2,4-pyrimidinediamine] showed an IC50 of 117 nM.

Same assay, conditions: Homo sapiens, Ramos, Ramos B-cell line stimulated with IL-4; CD23 expression by FACS; read-out: IC50, Example 41

`CNC(=O)COc1ccc(Nc2nc(Nc3ccc(S(N)(=O)=O)cc3)ncc2F)cc1` [Compound I-143, N2-(4-Aminosulfonylphenyl)-5-fluoro-N4-(4-methylaminocarbonylmethoxyphenyl)-2,4-pyrimidinediamine] and `CNC(=O)COc1ccc(Nc2nc(Nc3cccc(S(N)(=O)=O)c3)ncc2F)cc1` [Compound I-144, N2-(3-Aminosulfonylphenyl)-5-fluoro-N4-(4-methylaminocarbonylmethoxyphenyl)-2,4-pyrimidinediamine] are within 1.5-fold of each other in IC50: 1190 nM for the first, 1010 nM for the second.

Work on `Cc1cc(Nc2nc(Nc3ccc(C)c(S(N)(=O)=O)c3)ncc2F)ccc1OC1CCN(C)CC1` [II-5, N2-(3-Aminosulfonyl-4-methylphenyl)-5-fluoro-N4-{3-methyl-4-[(1-methylpiperidin-4-yl)oxy]phenyl}-2,4-pyrimidinediamine] yielded an IC50 of 2210 nM.

Same assay, conditions: Ramos B cells stimulated with IL-4, CD23 expression by FACS; read-out: IC50, Example 41

First: Cc1ccc(Nc2ncc(F)c(NC3CN(C(=O)CC#N)CCC3C)n2)cc1S(N)(=O)=O (racemic) [VII-5, Racemic N2-(3-aminosulfonyl-4-methylphenyl)-N4-(1-cyanomethylenecarbonyl-4-methylpiperidin-3-yl)-5-fluoro-2,4-pyrimidinediamine]
Second: COc1ccc(Nc2ncc(F)c(Nc3ccc(CN4CCS(=O)(=O)CC4)cc3)n2)cc1S(N)(=O)=O [III-112, N2-(3-Aminosulfonyl-4-methyloxyphenyl)-5-fluoro-N4-{4-[(1,1-dioxothiomorpholin-4-yl-)methyl]phenyl}-2,4-pyrimidinediamine]
The IC50 of the first is 1.7-fold higher: 4130 nM for the first, 2480 nM for the second. The second is the more potent here.

Compared with `COC(=O)CNS(=O)(=O)c1cccc(Nc2ncc(F)c(Nc3ccc(Cl)c(Cl)c3)n2)c1` [VI-8, N4-(3,4-Dichlorophenyl)-5-fluoro-N2-[3-(N-methoxycarbonylmethylene)aminosulfonylphenyl]-2,4-pyrimidinediamine], `COC(=O)CNS(=O)(=O)c1cccc(Nc2ncc(F)c(Nc3ccc(OC)c(Cl)c3)n2)c1` [VI-7, N4-(3-Chloro-4-methoxyphenyl)-5-fluoro-N2-[3-(N-methoxycarbonylmethylene)aminosulfonylphenyl]-2,4-pyrimidinediamine] is 3-fold lower in IC50: 2280 nM for the first, 766 nM for the second.

Going from `CN1C(=O)C(C)(C)Oc2ccc(Nc3nc(Nc4ccc(S(N)(=O)=O)cc4)ncc3F)nc21` [VII-43, N2-(4-Aminosulfonylphenyl)-N4-[2,2,4-trimethyl-3-oxo-5-pyrid[1,4]oxazin-5-yl]-5-fluoro-2,4-pyrimidinediamine] to `NC(=O)NCc1cccc(Nc2nc(Nc3cccc(S(N)(=O)=O)c3)ncc2F)c1` [III-114, N4-(3-aminocarbonylaminomethyl)phenyl-N2-(3-aminosulfonyl)phenyl-5-fluoro-2,4-pyrimidinediamine], the IC50 rises from 603 nM to 2680 nM (4.4-fold). The first is the more potent here.

Same assay, conditions: Ramos B cells stimulated with IL-4, CD23 expression by FACS; sodium salt; read-out: IC50, Example 41

`CCC(=O)NS(=O)(=O)c1cc(Nc2ncc(F)c(Nc3ccc(CCC#N)c(C)c3)n2)ccc1C` [VI-104, N4-[4-(2-Cyanoethyl)-3-methylphenyl]-5-fluoro-N2-(4-methyl-3-propionylaminosulfonylphenyl)-2,4-pyrimidinediamine Sodium Salt] gave an IC50 of 1980 nM.

Same assay, conditions: Ramos B-cell line stimulated with IL-4; CD23 expression by FACS; read-out: IC50, Example 41

Compared with `NS(=O)(=O)c1ccc(Nc2ncc(F)c(Nc3cccc(OCc4cccnc4)c3)n2)cc1` [Compound I-185, N2-(4-Aminosulfonylphenyl)-5-fluoro-N4-[3-(3-pyridinyl)methyleneoxyphenyl]-2,4-pyrimidinediamine], `NC(=O)COc1ccc(Nc2nc(Nc3ccc(S(N)(=O)=O)cc3)ncc2F)cc1` [Compound I-115, N4-(4-Aminocarbonylmethoxy)phenyl-N2-(4-aminosulfonyl)phenyl-5-fluoro-2,4-pyrimidinediamine] is 2.7-fold higher in IC50: 298 nM for the first, 793 nM for the second.

Going from `CN1CCN(S(=O)(=O)c2cccc(Nc3ncc(F)c(Nc4ccc(CC#N)cc4)n3)c2)CC1` [III-5, N4-(4-Cyanomethyl)phenyl-5-fluoro-N2-[3-(4-methylpiperazin-1-yl)sulfonyl]phenyl-2,4-pyrimidinediamine] to `N#CCc1ccc(Nc2nc(Nc3ccc(S(N)(=O)=O)cc3)ncc2F)cc1` [III-3, N2-(4-Aminosulfonyl)phenyl-N4-(4-cyanomethyl)phenyl-5-fluoro-2,4-pyrimidinediamine], the IC50 falls from 4980 nM to 536 nM (9.3-fold).

`COc1cc(Nc2nc(Nc3cccc(S(N)(=O)=O)c3)ncc2F)ccc1NC(=O)CC#N` [Compound I-84, N2-(3-Aminosulfonylphenyl)-5-fluoroN4-[3-methoxy-4-(N-cyanoacetyl)aminophneyl]-2,4-pyrimidinediamine] and `CCn1nccc1NC(=O)Cc1ccc(Nc2nc(Nc3cccc(S(N)(=O)=O)c3)ncc2F)cc1` [III-51, N2-(3-Aminosulfonylphenyl)-N4-[(1-ethylpyrazolyl-5-aminocarbonylmethylene)phenyl]-5-fluoro-2,4-pyrimidinediamine] are within 1.5-fold of each other in IC50: 1400 nM for the first, 1010 nM for the second.

First: CC(=O)NS(=O)(=O)c1cc(Nc2ncc(F)c(Nc3ccc(OCC#N)cc3)n2)ccc1C [Compound I-36, N2-(3-Acetylaminosulfonyl-4-methyl)phenyl-N4-(4-cyanomethyleneoxy)phenyl-5-fluoro-2,4-pyrimidinediamine]
Second: NS(=O)(=O)c1cccc(Nc2ncc(F)c(Nc3ccc(OCCN4CCOCC4)cc3)n2)c1 [Compound I-206]
The IC50 of the first is 12-fold higher: 8800 nM for the first, 726 nM for the second. The second is the more potent here.

`NS(=O)(=O)c1ccc(Nc2ncc(F)c(Nc3ccc(CNC(=O)C4CC4)cc3)n2)cc1` [III-41, N2-(4-aminosulfonyl)phenyl-N4-(4-cyclopropylcarbonylaminomethyl)phenyl-5-fluoro-2,4-pyrimidinediamine] showed an IC50 of 1010 nM.

Same assay, conditions: Ramos B-cell line stimulated with IL-4; CD23 expression by FACS; sodium salt; read-out: IC50, Example 41

Going from `CC(=O)NS(=O)(=O)c1cccc(Nc2ncc(F)c(Nc3ccc(OCc4cc(C)on4)cc3)n2)c1` [Compound I-243, N2-(3-Acetamidosulfonylphenyl)-5-fluoro-N4-[4-(5-methylisoxazol-3-yl)methyleneoxyphenyl]-2,4-pyrimidinediamine sodium salt] to `CCC(=O)NS(=O)(=O)c1cccc(Nc2ncc(F)c(Nc3ccc(OCc4cc(C)on4)cc3)n2)c1` [Compound I-242, 5-Fluoro-N4-[4-(5-methylisoxazol-3-yl)methyleneoxyphenyl]-N2-(3-N-propanamido)sulfonylphenyl)]-2,4-pyrimidinediamine sodium salt], the IC50 falls from 917 nM to 520 nM (1.8-fold).
